Laboratory results as given in the supplement of paper PMC10307832.

Experiments:
Assay in all cases: relative viability (nuclei count vs DMSO), 5 days (fraction); higher = more cells survive
Palbociclib + Crizotinib = compound: CC(=O)c1c(C)c2cnc(Nc3ccc(N4CCNCC4)cn3)nc2n(C2CCCC2)c1=O [Palbociclib] + C[C@@H](Oc1cc(-c2cnn(C3CCNCC3)c2)cnc1N)c1c(Cl)ccc(F)c1Cl [Crizotinib] (partner 1 µM)
Method in brief: (§1)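 Relative viability divides the nuclei count in treated wells by that in vehicle wells. Lung cancer cell lines were seeded in 1536-well plates, dosed by pin tool the next day, and fixed and stained after 5 days in one step with final 0.05% Triton X-100, 1% formaldehyde and 1 ug/ml Hoechst. Dosing was a single drug or a fixed anchor-drug dose plus five library-drug doses (not always all listed) in √10 steps, and values are medians of duplicate plates imaged at 4×.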

Palbociclib + Linsitinib = compound: CC(=O)c1c(C)c2cnc(Nc3ccc(N4CCNCC4)cn3)nc2n(C2CCCC2)c1=O [Palbociclib] + C[C@]1(O)C[C@@H](c2nc(-c3ccc4ccc(-c5ccccc5)nc4c3)c3c(N)nccn32)C1 [Linsitinib] (partner 1 µM)
Method in brief: as §1

Palbociclib + Tozasertib = compound: CC(=O)c1c(C)c2cnc(Nc3ccc(N4CCNCC4)cn3)nc2n(C2CCCC2)c1=O [Palbociclib] + Cc1cc(Nc2cc(N3CCN(C)CC3)nc(Sc3ccc(NC(=O)C4CC4)cc3)n2)n[nH]1 [Tozasertib] (partner 0.1 µM)
Method in brief: as §1

Palbociclib + Dasatinib = compound: CC(=O)c1c(C)c2cnc(Nc3ccc(N4CCNCC4)cn3)nc2n(C2CCCC2)c1=O [Palbociclib] + Cc1nc(Nc2ncc(C(=O)Nc3c(C)cccc3Cl)s2)cc(N2CCN(CCO)CC2)n1 [Dasatinib] (partner 0.075 µM)
Method in brief: as §1

Cell Line	relative viability (Palbociclib + Crizotinib; first compound 0.01 µM)	relative viability (Palbociclib + Crizotinib; first compound 0.03162 µM)	relative viability (Palbociclib + Crizotinib; first compound 0.1 µM)	relative viability (Palbociclib + Crizotinib; first compound 0.3162 µM)	relative viability (Palbociclib + Crizotinib; first compound 1 µM)	relative viability (Palbociclib + Linsitinib; first compound 0.01 µM)	relative viability (Palbociclib + Linsitinib; first compound 0.03162 µM)	relative viability (Palbociclib + Linsitinib; first compound 0.1 µM)	relative viability (Palbociclib + Linsitinib; first compound 0.3162 µM)	relative viability (Palbociclib + Linsitinib; first compound 1 µM)	relative viability (Palbociclib + Tozasertib; first compound 0.01 µM)	relative viability (Palbociclib + Tozasertib; first compound 0.1 µM)	relative viability (Palbociclib + Tozasertib; first compound 0.3162 µM)	relative viability (Palbociclib + Tozasertib; first compound 1 µM)	relative viability (Palbociclib + Dasatinib; first compound 0.01 µM)	relative viability (Palbociclib + Dasatinib; first compound 0.1 µM)	relative viability (Palbociclib + Dasatinib; first compound 0.3162 µM)	relative viability (Palbociclib + Dasatinib; first compound 1 µM)	relative viability (Palbociclib + Tozasertib; first compound 0.03162 µM)	relative viability (Palbociclib + Dasatinib; first compound 0.03162 µM)
NCI-H596	0.98	0.905	0.986	1.05	0.973	1.12	0.914	0.95	1.02	1.03	0.951	1	0.935	0.965	0.606	0.551	0.599	0.613		
NCI-H1975	0.979	0.861	0.869	0.763	0.758	0.956	0.864	0.886	0.766	0.716	0.733	0.577	0.694	0.592	0.373	0.323	0.322	0.297	0.664	0.347
EKVX	1.13	0.898	0.818	0.781	0.499	1.01	0.786	0.722	0.781	0.492	0.366	0.341	0.398	0.311	0.467	0.502	0.455	0.372	0.396	0.444
NCI-H460	0.938	0.781	0.581	0.582	0.205	0.903	0.529	0.483	0.288	0.117	0.33	0.563	0.486	0.467	0.459	0.392	0.314	0.162	0.0915	0.429
NCI-H23	0.613		0.436	0.458	0.428	0.794		0.509	0.46	0.398	0.335	0.381	0.378	0.412	0.835	0.8	0.732	0.541		
NCI-H2009	1.02	0.913	0.838	0.695	0.331	1.18	1.02	0.957	0.909	0.494	0.739	0.625	0.479	0.346	0.272	0.187	0.223	0.159	0.729	0.212
NCI-H2405	0.829	0.649	0.698	0.703	0.586	0.992		0.49	0.808	0.54	0.75	0.663	0.574	0.509	0.207	0.226	0.212	0.208	0.651	0.212
NCI-H1395						1.35	0.968	0.737	0.887	0.726	0.791	0.627	0.676	0.635	0.399	0.345	0.325	0.333	0.709	0.382
HOP-62	0.817		0.842	0.812	0.666	0.995		1.01	0.908	0.692	0.368	0.344	0.347	0.338	0.704	0.57	0.525	0.463		
